Measurements: PubChem BioAssay (NCI)
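Where inhibition never reached the appropriate level, the endpoint shown equals the highest concentration tested. Otherwise, values were interpolated linearly from a five-concentration, 48-hour dose response in 96-well plates. At the GI50, growth is halved. The concentration for full growth arrest is given as TGI.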 Where a SMILES comes first, the peptide text is derived from it. The star is where a group is joined. Palmitoyl = CCCCCCCCCCCCCCCC(=O)*

Legend:
Experiment in all cases: growth of human tumour cells (NCI), 48 h
UACC-257 melanoma = tested on: UACC-257 melanoma
HOP-92 NSCLC = tested on: HOP-92 NSCLC
HL-60(TB) leukemia = tested on: HL-60(TB) leukemia
IGROV1 ovarian = tested on: IGROV1 ovarian
LOX IMVI melanoma = tested on: LOX IMVI melanoma
OVCAR-5 ovarian = tested on: OVCAR-5 ovarian
NCI-H23 lung = tested on: NCI-H23 lung
SN12C renal = tested on: SN12C renal
TK-10 renal = tested on: TK-10 renal
MDA-MB-435 = tested on: MDA-MB-435

Compound | TGI (UACC-257 melanoma) [µM] | TGI (HOP-92 NSCLC) [µM] | TGI (HL-60(TB) leukemia) [µM] | TGI (IGROV1 ovarian) [µM] | TGI (LOX IMVI melanoma) [µM] | TGI (OVCAR-5 ovarian) [µM] | TGI (NCI-H23 lung) [µM] | TGI (SN12C renal) [µM] | GI50 (UACC-257 melanoma) [µM] | GI50 (LOX IMVI melanoma) [µM] | GI50 (NCI-H23 lung) [µM] | TGI (TK-10 renal) [µM] | TGI (MDA-MB-435) [µM] | GI50 (HOP-92 NSCLC) [µM] | GI50 (MDA-MB-435) [µM] | GI50 (TK-10 renal) [µM] | GI50 (HL-60(TB) leukemia) [µM] | GI50 (IGROV1 ovarian) [µM] | GI50 (OVCAR-5 ovarian) [µM] | GI50 (SN12C renal) [µM]
Cn1c(-c2ccccc2)cc(-c2cccs2)c1-c1cccs1 | > 51 | > 100 | > 100 | > 100 | > 100 | > 100 | > 100 | > 100 | – | – | – | – | – | – | – | – | – | – | – | –
C/C(=N/N=C(\[O-])c1ccncc1)C(F)(F)F.C/C(=N\N=C(/[O-])c1ccncc1)C(F)(F)F.[Ni+2] | > 1 | – | > 1 | – | > 1 | – | > 1 | – | > 1 | > 1 | > 1 | – | – | – | – | – | – | – | – | –
CC(N)Cc1ccc(Cl)c(Cl)c1 (stereo not given) | 54.9 | 57.4 | 42.4 | > 100 | > 68.5 | > 82.5 | > 100 | > 74 | – | – | – | > 83 | – | – | – | – | – | – | – | –
Nc1[nH]c(=O)nc2c1cnn2C1CCCCO1 (stereo not given) | > 100 | > 100 | > 100 | > 100 | > 100 | > 100 | > 100 | > 100 | – | – | – | > 100 | – | – | – | – | – | – | – | –
CON(C)c1nc(N(C)OC)nc(N(C)OC)n1 | – | – | > 10 | > 10 | > 10 | > 10 | > 10 | > 10 | – | – | – | > 10 | > 10 | – | – | – | – | – | – | –
Cc1cc(C)nc(NS(=O)(=O)c2ccc(NC(=O)c3cccc4c(Nc5ccc(S(=O)(=O)Nc6cc(C)on6)cc5)c5ccccc5nc34)cc2)n1 | 47.2 | – | 68.4 | – | 35.6 | 34 | 42.6 | 61.8 | – | – | – | > 100 | – | – | – | – | – | – | – | –
CCN1CCC(O)(/C=C/c2ccccc2C)C(C(=O)/C=C/c2ccccc2C)C1 (stereo not given) | 9.31 | 3.38 | 4.85 | 14.5 | 3.38 | 3.99 | 4.11 | 4.6 | – | – | – | 10.1 | 7.04 | – | – | – | – | – | – | –
CCCCCCCCCCCCCCCC(=O)N1CCCC1C(=O)NCC(=O)NC(Cc1ccccc1)C(=O)NC(C)C(=O)NC(CO)C(=O)NC(Cc1ccc(O)cc1)C(=O)NC(CCCCN)C(=O)NC(CC(C)C)C(=O)NC(CCCN=C(N)N)C(=O)N1CCCC1C(=O)NCC(N)=O (stereo not given) (Palmitoyl-PGFASYKLRPG-NH2; configuration not given here) | 52.7 | 34.7 | 31 | 46.1 | – | 38.6 | 58.9 | – | 26.4 | – | 23.6 | 41.5 | 54.5 | 15.8 | 14 | 18.4 | 17.2 | 20.1 | 15.4 | –
CC1=C(O)C2=C(C(=O)C1=O)[C@@H](C)CC[C@@H]2[C@@H](C)C/C=C/C(C)(C)O | > 100 | – | 71.3 | > 100 | > 100 | > 100 | > 100 | > 100 | – | – | – | – | > 100 | – | – | – | – | – | – | –
C=C(C)C1Cc2c(c3ccccc3n(C)c2=O)O1 (stereo not given) | – | > 100 | > 100 | > 100 | > 100 | – | > 100 | > 100 | – | – | – | > 100 | – | – | – | – | – | – | – | –
COC(=O)C1=C(OC(=O)/C(=C/c2ccc(Cl)cc2)c2ccc(Cl)cc2)C(C(=O)OC)[C@]2(O)[C@@H](C(=O)OC)[C@H]1C[C@@H](c1ccccc1)[C@@H]2C(=O)OC (stereo not given in full) | > 100 | – | > 100 | > 100 | > 100 | > 100 | > 100 | > 100 | – | – | – | > 100 | > 100 | – | – | – | – | – | – | –
c1ccc(-c2nc(N3CCNCC3)c3oc(-c4ccccc4)nc3n2)cc1 | – | 3.06 | 4.26 | 3.22 | – | 3.08 | 3.39 | 2.98 | – | – | 1.76 | – | 3.12 | 1.46 | 1.65 | – | 2.03 | 1.69 | 1.69 | 1.61
Nc1nc(Nc2ccccc2)c2[nH]cnc2n1 | > 100 | 92.4 | > 100 | > 100 | > 100 | – | > 100 | > 100 | – | – | – | > 100 | > 100 | – | – | – | – | – | – | –
COc1cc(C(C)O)c[n+](Cc2ccccc2)c1 (stereo not given) | > 100 | > 100 | > 100 | > 100 | > 100 | > 100 | > 100 | > 100 | – | – | – | > 100 | – | – | – | – | – | – | – | –
COC(=O)c1c(C)n([O-])c2cc(Cl)c(Cl)cc2[n+]1=O | 54.9 | – | 50.2 | 19.9 | 27.8 | > 100 | > 100 | 84 | – | – | – | 61.5 | 62.8 | – | – | – | – | – | – | –
OCCN(CCO)c1ncnc2nc[nH]c12 | > 100 | > 100 | – | > 100 | > 100 | > 100 | > 100 | > 100 | – | – | – | > 100 | > 100 | – | – | – | – | – | – | –
Cc1c(-c2ccccc2)[nH]c2cc(Cl)ccc2c1=O | > 100 | – | > 100 | – | > 100 | > 100 | > 100 | > 100 | – | – | – | > 100 | > 100 | – | – | – | – | – | – | –
CC(C)C(C(=O)O)N1C(=O)c2ccccc2C1=O (stereo not given) | > 100 | > 100 | > 100 | > 100 | > 100 | > 100 | > 100 | > 100 | – | – | – | > 100 | > 100 | – | – | – | – | – | – | –
c1cnc2c(c1)ccc1cccnc12 | > 31.5 | > 100 | 3.04 | > 100 | > 100 | > 100 | > 100 | > 28.2 | – | – | – | > 92 | > 100 | – | – | – | – | – | – | –
CCOC(=O)c1c(C)n(-c2ccc(Cl)cc2)c2c1cc(O)c1[nH]c3c(c12)CCCC3 | > 100 | > 100 | > 100 | > 100 | > 100 | > 100 | > 100 | > 100 | – | – | – | > 100 | > 100 | – | – | – | – | – | – | –
O=C(/C=C/c1ccc(Oc2cc(C(=O)/C=C/c3ccc(O)cc3)c(O)cc2O)cc1)c1ccc(O)cc1O | 28.4 | 55.3 | > 100 | 11.3 | 28.6 | 16.7 | 28.6 | 17 | – | – | – | 11.6 | 17.6 | – | – | – | – | – | – | –
CN1C(c2ccccc2)CC(=O)C(N)C1c1ccccc1 (stereo not given) | > 87.1 | 78.9 | 56.7 | > 100 | 32.1 | > 70.8 | > 100 | 97.6 | – | – | – | > 100 | – | – | – | – | – | – | – | –
